{
  "source": "patent US12297349B2",
  "about": "“Transparent resin composition and transparent resin molded article” (Sony Group Corporation, priority 2016, dated 2025)",
  "test": "Dissolved amount (solubility) in pure water",
  "conditions": "stirring for 30 minutes, filtering with 0.5 μm filter, insoluble matter measured",
  "protocol": "The content of the water-insoluble organic sulfonic acid and/or the metal salt thereof is 0.01 to 3.0 pts·mass to 100 pts·mass of the aromatic polycarbonate resin. […] The dissolved amount per 100 g of pure water can be calculated by mixing 3 g of sample with 100 g of pure water, stirring for 30 minutes, and then filtering it with 0.5 μm filter to measure the insoluble matter.",
  "data": [
    {"smiles": "O=S(=O)([O-])C(F)(F)C(F)(F)C(F)(F)C(F)(F)F.[K+]", "note": "[b-2, potassium perfluorobutanesulfonate]", "values": [
      {"measurement": "A dissolved amount (solubility)", "result": "4.6 g/100 g of pure water"}
    ]},
    {"smiles": "Cc1ccc(S(=O)(=O)[O-])cc1.[Na+]", "note": "[b-3, sodium paratoluenesulfonic acid]", "values": [
      {"measurement": "A dissolved amount (solubility)", "result": "24.0 g/100 g of pure water"}
    ]}
  ]
}
